Experimental data: PMC10687260, “1,3-Diphenylureido hydroxamate as a promising scaffold for generation of potent antimalarial histone deacetylase inhibitors” (Scientific Reports, 2023)

Assays:
HepG2 cells = test: Cytotoxicity in human HepG2 cells (WST-1); assay type: cell-based; conditions: Homo sapiens, HepG2; 48 h, WST-1; read-out: IC50 HepG2
Procedure: Cytotoxicity in human HepG2 cells.[47] […] Cytotoxic effects of compounds were assessed using the cell proliferation reagent WST-1 (Roche; CELLPRO-RO) in a 96-well plate-based screening assay. HepG2 cells were seeded at 10^4 cells/well (100 μL) in 96-well flat-bottom plates (Sarstedt) the night before the experiment to allow attachment of cells. The next day, two-fold serial dilutions of compounds were prepared in fresh medium in an extra plate, and the medium of cells was replaced by the medium containing the compound dilutions. Non-treated cells (max. proliferation), cells treated with the maximal solvent concentration (DMSO; solvent control), and medium with the maximal compound concentration (native absorbance) used as controls. […] Subsequently, 10 μL WST-1 was added to each well and plates were incubated for additional 4 h under standard conditions. WST-1 is a tetrazolium salt and is metabolised by the mitochondrial succinate-tetrazolium-reductase system of living cells and forms formazan, whose absorbance was measured at 450 nm. Absorbance at 630 nm was assessed to check for protein and precipitation background. Both measurements were acquired via the CLARIOstar (V5.20) and MARS software, manually scaled to 0–100%, and plotted with GraphPad Prism (version 9.5.2 for Windows, GraphPad Software, La Jolla California USA).

human HDAC1 = molecular target: T1, human HDAC1 (Homo sapiens, UniProt Q13547); test: In vitro HDAC enzymatic assay, HDAC1; assay type: biochemical; conditions: mean ± SD
T1 construct: purchased ENZO Life Sciences AG (Lausen, CH)
Procedure: (§1) In vitro HDAC enzymatic assays. Recombinant human HDAC1 and HDAC6 were purchased from ENZO Life Sciences AG (Lausen, CH) whereas HDAC8 was produced as described before. In vitro testing of the inhibitors in an enzymatic assay was carried out as described in previous publications[32],[33]. For HDAC1 a fluorogenic peptide derived from p53 (Ac-RHKK(Acetyl)-AMC) was used. For HDAC6, the substrate (Abz-SRGGK(thio-TFA)FFRR-NH2) was used as described before.

human HDAC6 = molecular target: T2, human HDAC6 (Homo sapiens, UniProt Q9UBN7); test: In vitro HDAC enzymatic assay, HDAC6; assay type: biochemical; conditions: for IC50: mean ± SD; for HDAC1/6 SI: ratio HsHDAC1 IC50/HsHDAC6 IC50
T2 construct: purchased ENZO Life Sciences AG (Lausen, CH)
T2 sequence (Q9UBN7 1-1215): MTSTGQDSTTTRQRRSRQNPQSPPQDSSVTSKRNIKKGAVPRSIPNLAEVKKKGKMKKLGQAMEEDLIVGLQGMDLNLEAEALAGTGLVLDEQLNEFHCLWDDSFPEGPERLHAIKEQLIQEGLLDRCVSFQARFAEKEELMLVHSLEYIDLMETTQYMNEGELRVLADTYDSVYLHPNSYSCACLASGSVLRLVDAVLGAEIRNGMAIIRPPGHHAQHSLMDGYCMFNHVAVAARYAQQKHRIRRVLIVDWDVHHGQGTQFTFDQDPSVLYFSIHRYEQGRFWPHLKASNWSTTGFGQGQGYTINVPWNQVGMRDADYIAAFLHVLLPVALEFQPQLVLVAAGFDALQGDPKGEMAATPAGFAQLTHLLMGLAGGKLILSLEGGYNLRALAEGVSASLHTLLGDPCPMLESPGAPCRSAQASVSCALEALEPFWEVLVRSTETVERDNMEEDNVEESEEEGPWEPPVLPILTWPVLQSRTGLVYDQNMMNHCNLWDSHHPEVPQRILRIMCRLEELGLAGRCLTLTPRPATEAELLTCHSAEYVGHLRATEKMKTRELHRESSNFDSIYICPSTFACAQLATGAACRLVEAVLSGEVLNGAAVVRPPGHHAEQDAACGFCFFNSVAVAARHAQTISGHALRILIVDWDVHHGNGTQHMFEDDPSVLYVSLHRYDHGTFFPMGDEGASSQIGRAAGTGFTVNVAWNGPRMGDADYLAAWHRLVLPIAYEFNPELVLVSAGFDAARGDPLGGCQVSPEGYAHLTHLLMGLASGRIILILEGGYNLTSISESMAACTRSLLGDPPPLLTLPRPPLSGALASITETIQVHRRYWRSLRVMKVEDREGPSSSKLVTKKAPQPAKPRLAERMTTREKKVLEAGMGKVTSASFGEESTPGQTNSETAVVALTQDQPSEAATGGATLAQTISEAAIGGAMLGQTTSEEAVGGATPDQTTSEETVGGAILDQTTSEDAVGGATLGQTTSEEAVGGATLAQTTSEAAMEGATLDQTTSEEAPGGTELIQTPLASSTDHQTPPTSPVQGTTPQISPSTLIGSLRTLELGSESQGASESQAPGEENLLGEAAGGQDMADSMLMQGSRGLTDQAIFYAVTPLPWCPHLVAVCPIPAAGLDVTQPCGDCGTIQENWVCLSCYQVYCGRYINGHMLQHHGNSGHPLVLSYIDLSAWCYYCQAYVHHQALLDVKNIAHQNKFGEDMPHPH
Procedure: as §1

HDAC8 = molecular target: T3, HDAC8 (Homo sapiens, UniProt Q9BY41); test: In vitro HDAC enzymatic assay, HDAC8; assay type: biochemical; conditions: mean ± SD
T3 construct: made in house
T3 sequence (Q9BY41 1-377): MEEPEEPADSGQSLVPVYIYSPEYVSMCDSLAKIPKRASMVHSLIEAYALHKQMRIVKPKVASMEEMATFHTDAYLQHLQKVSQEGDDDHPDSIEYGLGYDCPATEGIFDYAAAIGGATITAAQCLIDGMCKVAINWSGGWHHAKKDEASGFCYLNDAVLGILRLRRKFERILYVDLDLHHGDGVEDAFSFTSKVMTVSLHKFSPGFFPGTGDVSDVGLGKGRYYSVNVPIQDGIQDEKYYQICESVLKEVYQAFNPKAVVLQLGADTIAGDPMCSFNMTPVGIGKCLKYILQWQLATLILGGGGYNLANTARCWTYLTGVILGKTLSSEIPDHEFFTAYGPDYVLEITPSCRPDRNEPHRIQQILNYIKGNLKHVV
Procedure: as §1

P. falciparum 3D7 = test: Antiplasmodial SYBR Green I proliferation assay, P. falciparum 3D7; assay type: cell-based, Plasmodium falciparum; conditions: Plasmodium falciparum, 3D7, 96 h, 96 h; values in brackets 95% confidence intervals; read-out: IC50 Pf3D7
Excerpt: Antiplasmodial activity against P. falciparum 3D7 (A, C and E) and P. falciparum Dd2 (B, D, F). […] Curves were plotted using non-linear regression based on means from three independent experiments measured in triplicate. Error bars indicate standard deviation, whose values are provided in the respective table.
Plasmodium falciparum culture and antiplasmodial activity. […] Development, parasitaemia, and morphology of parasites were monitored by light microscopy of thin blood smears stained according to the Romanowsky method (Panótico Rápido staining kit; Laborclin, Pinhais, Paraná, Brazil). […] Fresh 0^+ blood was generously provided by “Hospital Novo Atibaia” (Atibaia, SP, Brazil), and approved by the ethics committee at ICB-USP. The antiplasmodial effect of all compounds was validated against P. falciparum 3D7 strain conducting SYBR Green I (Invitrogen) drug assays as previously reported[30],[46] as a modification of the original procedure. […] Parasite proliferation was measured by the DNA load via fluorescence, using 100 μL of a lysis buffer with SYBR Green I (0.02% v/v) and incubated for 1 h at room temperature in the dark. […] Focal and gain adjustment was performed using the non-treated controls (highest expected fluorescence signal). Data was acquired via the CLARIOstar (V5.20) and MARS software, manually scaled to 0–100%, and plotted using GraphPad Prism (v9.5.2 for Windows, GraphPad Software, La Jolla California USA, www.graphpad.com). Non-treated parasites, the highest solvent concentration on parasites, CQ on parasites, and the highest drug concentration in the medium were used as controls for maximal growth, solvent control, positive biological control, and native drug fluorescence, respectively.

CYP450 2C9 = molecular target: T4, CYP450 2C9 (Homo sapiens, UniProt P11712); test: CYP450 inhibition in human liver microsomes, 2C9; assay type: in vitro ADME
T4 construct: 10 μM compound was incubated with human liver microsomes and selective marker substrates; from tissue; host or cells: human liver microsomes

CYP1A2 = molecular target: T5, CYP1A2 (Homo sapiens, UniProt P05177); test: CYP450 inhibition in human liver microsomes, 1A2; assay type: in vitro ADME; conditions: Tested concentration: 1.0 µM
T5 construct: 10 μM compound was incubated with human liver microsomes and selective marker substrates; from tissue; host or cells: human liver microsomes
T5 sequence (P05177 1-516): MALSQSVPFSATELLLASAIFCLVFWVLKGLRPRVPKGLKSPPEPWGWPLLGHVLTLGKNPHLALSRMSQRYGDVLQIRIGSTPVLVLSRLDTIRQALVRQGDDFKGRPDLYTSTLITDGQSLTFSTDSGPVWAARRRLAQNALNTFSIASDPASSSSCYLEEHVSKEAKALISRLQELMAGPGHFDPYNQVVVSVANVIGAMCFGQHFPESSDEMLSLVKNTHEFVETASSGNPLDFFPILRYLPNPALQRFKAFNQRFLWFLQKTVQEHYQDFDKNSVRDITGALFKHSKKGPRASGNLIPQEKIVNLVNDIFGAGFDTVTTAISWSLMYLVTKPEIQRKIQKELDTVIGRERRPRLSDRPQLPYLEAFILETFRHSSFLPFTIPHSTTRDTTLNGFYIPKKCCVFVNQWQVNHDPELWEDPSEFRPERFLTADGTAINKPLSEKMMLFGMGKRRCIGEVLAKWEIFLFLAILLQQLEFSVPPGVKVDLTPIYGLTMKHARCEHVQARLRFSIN

[1] = Stability in human hepatic microsomes; assay type: in vitro ADME
Excerpt: (§2) DMPK evaluation. […].

[2] = Stability in mouse hepatic microsomes; assay type: in vitro ADME
Excerpt: as §2

CYP450 2D6 = molecular target: T6, CYP450 2D6 (Homo sapiens, UniProt P10635); test: CYP450 inhibition in human liver microsomes, 2D6; assay type: in vitro ADME; conditions: Tested concentration: 40 µM
T6 construct: 10 μM compound was incubated with human liver microsomes and selective marker substrates; from tissue; host or cells: human liver microsomes
T6 sequence (P10635 whole entry): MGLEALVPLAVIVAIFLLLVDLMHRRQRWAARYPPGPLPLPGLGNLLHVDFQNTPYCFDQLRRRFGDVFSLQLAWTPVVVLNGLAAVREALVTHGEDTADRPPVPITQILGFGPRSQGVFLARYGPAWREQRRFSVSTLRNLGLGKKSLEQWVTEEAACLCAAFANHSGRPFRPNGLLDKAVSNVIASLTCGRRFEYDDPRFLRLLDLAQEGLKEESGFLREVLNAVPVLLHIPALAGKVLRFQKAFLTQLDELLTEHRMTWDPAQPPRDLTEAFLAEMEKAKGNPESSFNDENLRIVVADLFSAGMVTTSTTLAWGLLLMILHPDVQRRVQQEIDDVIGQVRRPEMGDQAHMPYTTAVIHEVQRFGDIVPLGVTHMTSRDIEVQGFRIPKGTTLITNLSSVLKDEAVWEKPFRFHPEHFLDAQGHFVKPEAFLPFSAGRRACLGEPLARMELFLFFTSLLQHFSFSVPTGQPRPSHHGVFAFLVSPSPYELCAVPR

T1 sequence (Q13547 whole entry): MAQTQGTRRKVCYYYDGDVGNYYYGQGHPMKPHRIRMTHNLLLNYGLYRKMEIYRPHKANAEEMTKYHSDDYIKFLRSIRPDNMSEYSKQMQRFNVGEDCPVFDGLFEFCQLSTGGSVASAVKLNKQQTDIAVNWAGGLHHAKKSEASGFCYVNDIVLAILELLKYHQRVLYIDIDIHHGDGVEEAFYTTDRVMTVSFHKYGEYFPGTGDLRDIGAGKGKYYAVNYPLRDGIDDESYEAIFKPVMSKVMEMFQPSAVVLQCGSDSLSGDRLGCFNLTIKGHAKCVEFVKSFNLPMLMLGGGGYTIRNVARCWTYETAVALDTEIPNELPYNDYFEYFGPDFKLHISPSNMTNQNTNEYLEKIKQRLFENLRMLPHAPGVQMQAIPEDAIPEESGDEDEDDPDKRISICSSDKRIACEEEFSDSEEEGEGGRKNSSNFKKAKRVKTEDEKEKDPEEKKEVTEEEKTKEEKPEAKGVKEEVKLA
T4 sequence (P11712 whole entry): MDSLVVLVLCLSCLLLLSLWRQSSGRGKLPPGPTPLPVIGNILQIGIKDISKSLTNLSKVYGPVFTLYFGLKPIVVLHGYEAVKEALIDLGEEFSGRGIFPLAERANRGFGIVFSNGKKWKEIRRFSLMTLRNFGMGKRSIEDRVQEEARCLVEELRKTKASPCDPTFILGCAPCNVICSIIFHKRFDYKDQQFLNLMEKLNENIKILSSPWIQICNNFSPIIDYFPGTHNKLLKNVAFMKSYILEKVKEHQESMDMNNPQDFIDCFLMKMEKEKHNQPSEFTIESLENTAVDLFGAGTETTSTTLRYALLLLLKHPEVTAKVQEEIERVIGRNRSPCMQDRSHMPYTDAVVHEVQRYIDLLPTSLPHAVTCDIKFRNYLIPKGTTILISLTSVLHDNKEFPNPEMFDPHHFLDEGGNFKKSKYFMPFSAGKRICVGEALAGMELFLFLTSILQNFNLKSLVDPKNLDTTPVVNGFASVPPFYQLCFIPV

Row | SMILES | IC50 (HepG2 cells) [nM] | IC50 (human HDAC6) [nM] | IC50 (P. falciparum 3D7) [nM] | further results
1 | N#Cc1ccc(NC(=O)Nc2ccc(C(=O)NO)cc2)cc1 [8 k, 4-(3-(4-cyanophenyl)ureido)-N-hydroxybenzamide] | > 200000 | 11.6 ± 0.2 | 260 | melting point: 220 to 222 °C; IC50 (human HDAC1): 3750 ± 563 nM; HDAC1/6 SI (human HDAC6): 323; IC50 (HDAC8): 51.5 ± 6.1 nM
2 | CC(=O)N1CCN(c2ccc(OCC3COC(Cn4ccnc4)(c4ccc(Cl)cc4Cl)O3)cc2)CC1 (stereo not drawn) [Ketoconazole, reference compound] |  |  |  | CYP450% inhibition 2C9 (CYP450 2C9; Tested concentration: 1.0 µM): * (Inhibition < 10%); CYP450% inhibition 1A2 (CYP1A2): * (Inhibition < 10%)
3 | O=C(Nc1ccc(OC(F)(F)F)cc1)Nc1ccc(C(=O)NO)cc1 [8 g, N-hydroxy-4-(3-(4-(trifluoromethoxy)phenyl)ureido)benzamide] | 60500 |  | 13900 | 
4 | Nc1ccc(NC(=O)Nc2ccc(C(=O)NO)cc2)cc1 [Compound 8j, 4-(3-(4-aminophenyl)ureido)-N-hydroxybenzamide] | > 200000 |  | 350 | 
5 | O=C(Nc1ccc(C(=O)NO)cc1)Nc1ccc(C(F)(F)F)cc1 [Compound 8i, N-hydroxy-4-(3-(4-(trifluoromethyl)phenyl)ureido)benzamide] | 25100 |  | 1300 | 
6 | CCN(CC)CCNC(=O)c1c(C)[nH]c(/C=C2\C(=O)Nc3ccc(F)cc32)c1C [Sunitinib, reference compound] |  |  |  | half-life at 1 µM ([1]; 1 mg/mL hepatic microsomes, 1 µM compound, read-out: Half-life t1/2 Human): 22.3 min; microsomal CLint at 1 µM ([1]; read-out: Intrinsic clearance Clint Human): 31 µL/min/mg; half-life at 1 µM ([2]; 1 mg/mL hepatic microsomes, 1 µM compound, read-out: Half-life t1/2 Mouse): 9.1 min; microsomal CLint at 1 µM ([2]; read-out: Intrinsic clearance Clint Mouse): 76 µL/min/mg
7 | Nc1ccc(C(=O)NO)cc1 [Compound 15, 4-amino-N-hydroxybenzamide] | > 200000 |  | 6300 | 
8 | O=C(Nc1ccc(F)cc1)Nc1ccc(C(=O)NO)cc1 [Compound 8f., 4-(3-(4-fluorophenyl)ureido)-N-hydroxybenzamide] | 116000 |  | 400 | 
9 | Cc1nc2c([nH]1)c(=O)n(C)c(=O)n2Cc1ccco1 [Furafylline, reference compound] |  |  |  | CYP450% inhibition 2D6 (CYP450 2D6): * (Inhibition < 10%); CYP450% inhibition 2C9 (CYP450 2C9; Tested concentration: 40 µM): * (Inhibition < 10%)
10 | Cc1ccc(NC(=O)Nc2ccc(C(=O)NO)cc2)cc1 [Compound 8e, N-hydroxy-4-(3-(p-tolyl)ureido)benzamide] | > 200000 |  | 340 | 
11 | O=C(/C=C/c1ccc(NC(=O)Nc2ccc([N+](=O)[O-])cc2)cc1)NO [Compound 6d, (E)-N-hydroxy-3-(4-(3-(4-nitrophenyl)ureido)phenyl)acrylamide] | 10400 | 9 ± 0.7 | 1260 | melting point: 167 to 168 °C; IC50 (human HDAC1): 1110 ± 56.3 nM; HDAC1/6 SI (human HDAC6): 124; IC50 (HDAC8): 99.1 ± 10.9 nM
12 | O=C(CCc1ccc(NC(=O)Nc2ccc(Cl)cc2)cc1)NO [Compound 7b, 3-(4-(3-(4-chlorophenyl)ureido)phenyl)-N-hydroxypropanamide] | > 50000 | 185 ± 21.6 | 7040 | melting point: 286 °C (dec.); IC50 (human HDAC1): 4780 ± 446 nM; HDAC1/6 SI (human HDAC6): 26; IC50 (HDAC8): 568 ± 40.5 nM
13 | O=C(/C=C/c1ccc(NC(=O)Nc2ccc(Cl)cc2)cc1)NO [Compound 6b, (E)-3-(4-(3-(4-chlorophenyl)ureido)phenyl)-N-hydroxyacrylamide] | 28800 | 14.3 ± 2.2 | 7880 | 
14 | N/C(=N\O)c1ccc(NC(=O)Nc2ccc(C(=O)NO)cc2)cc1 [8 h, (Z)-N-hydroxy-4-(3-(4-(N'-hydroxycarbamimidoyl)phenyl)ureido)benzamide] | > 200000 | 21.3 ± 0.5 | 390 | melting point: 97 to 99 °C; IC50 (human HDAC1): 8300 ± 481 nM; HDAC1/6 SI (human HDAC6): 390; IC50 (HDAC8): 164 ± 9.1 nM
